# What was measured:
# DDR2 = target: T1, DDR2 (Homo sapiens, UniProt Q16832); assay: KINOMEscan kinome profiling (DiscoveRx/Eurofin platform); assay type: binding; settings: read-out: % control
# T1 construct: purchased DiscoveRx/Eurofin
# p38 MAPK = assay: Kinome profiling of NGN-006; assay type: binding; settings: kinase that HSB-13 inhibits
# DMPK2 (CDC42BPG) = target: T2, DMPK2 (CDC42BPG) (Homo sapiens, UniProt Q6DT37); assay: KINOMEscan kinome profiling (DiscoveRx/Eurofin platform); assay type: binding; settings: KINOMEscan DMPK2 (Entrez CDC42BPG), read-out: % control
# T2 construct: purchased DiscoveRx/Eurofin
# CSNK1E = target: T3, CSNK1E (Homo sapiens, UniProt P49674); assay: as above; assay type: binding; settings: read-out: % control
# T3 construct: purchased DiscoveRx/Eurofin
# CSNK1A1L = target: T4, CSNK1A1L (Homo sapiens, UniProt Q8N752); assay: as above; assay type: binding; settings: read-out: % control
# T4 construct: purchased DiscoveRx/Eurofin
# DYRK2 = target: T5, DYRK2 (Homo sapiens, UniProt Q92630); assay: as above; assay type: binding; settings: read-out: % control
# T5 construct: purchased DiscoveRx/Eurofin
# T5 sequence (Q92630 whole entry): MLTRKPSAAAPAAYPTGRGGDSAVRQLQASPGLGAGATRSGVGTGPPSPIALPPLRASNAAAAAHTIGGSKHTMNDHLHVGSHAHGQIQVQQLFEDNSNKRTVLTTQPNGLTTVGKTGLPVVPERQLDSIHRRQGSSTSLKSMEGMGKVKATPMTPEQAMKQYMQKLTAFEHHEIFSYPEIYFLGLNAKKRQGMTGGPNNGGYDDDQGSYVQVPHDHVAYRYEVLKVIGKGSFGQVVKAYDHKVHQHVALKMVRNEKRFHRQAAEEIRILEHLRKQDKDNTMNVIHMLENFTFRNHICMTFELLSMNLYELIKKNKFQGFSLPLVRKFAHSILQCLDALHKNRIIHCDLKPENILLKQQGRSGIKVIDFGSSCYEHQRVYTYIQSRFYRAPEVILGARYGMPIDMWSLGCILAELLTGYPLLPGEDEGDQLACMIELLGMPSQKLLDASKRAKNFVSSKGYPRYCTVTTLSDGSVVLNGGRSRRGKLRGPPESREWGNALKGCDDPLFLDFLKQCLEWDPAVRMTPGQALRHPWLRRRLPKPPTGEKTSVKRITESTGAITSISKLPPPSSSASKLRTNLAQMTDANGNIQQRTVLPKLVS
# EGFR(L747-T751del,Sins) = assay: as above; assay type: binding; settings: 1 uM
# CSF1R -autoinhibited = target: T6, CSF1R -autoinhibited (Homo sapiens, UniProt P07333); assay: as above; assay type: binding; settings: read-out: % control
# T6 construct: purchased DiscoveRx/Eurofin
# T6 sequence (P07333 539-972 limits assumed): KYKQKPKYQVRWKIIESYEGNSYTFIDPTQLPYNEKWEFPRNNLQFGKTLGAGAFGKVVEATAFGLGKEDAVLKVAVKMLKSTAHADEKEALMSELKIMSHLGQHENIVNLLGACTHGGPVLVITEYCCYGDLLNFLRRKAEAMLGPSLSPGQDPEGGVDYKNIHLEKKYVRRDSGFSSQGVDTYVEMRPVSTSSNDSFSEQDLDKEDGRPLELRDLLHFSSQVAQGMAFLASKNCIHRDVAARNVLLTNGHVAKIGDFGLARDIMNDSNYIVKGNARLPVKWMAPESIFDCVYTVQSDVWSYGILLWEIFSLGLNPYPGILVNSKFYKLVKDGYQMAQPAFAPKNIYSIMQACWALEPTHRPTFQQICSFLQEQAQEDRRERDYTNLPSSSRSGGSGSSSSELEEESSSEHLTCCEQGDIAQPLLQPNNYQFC
# EGFR = target: T7, EGFR (Homo sapiens, UniProt P00533); assay: as above; assay type: binding; settings: read-out: % control
# T7 construct: purchased DiscoveRx/Eurofin
# T7 sequence (P00533 25-1210): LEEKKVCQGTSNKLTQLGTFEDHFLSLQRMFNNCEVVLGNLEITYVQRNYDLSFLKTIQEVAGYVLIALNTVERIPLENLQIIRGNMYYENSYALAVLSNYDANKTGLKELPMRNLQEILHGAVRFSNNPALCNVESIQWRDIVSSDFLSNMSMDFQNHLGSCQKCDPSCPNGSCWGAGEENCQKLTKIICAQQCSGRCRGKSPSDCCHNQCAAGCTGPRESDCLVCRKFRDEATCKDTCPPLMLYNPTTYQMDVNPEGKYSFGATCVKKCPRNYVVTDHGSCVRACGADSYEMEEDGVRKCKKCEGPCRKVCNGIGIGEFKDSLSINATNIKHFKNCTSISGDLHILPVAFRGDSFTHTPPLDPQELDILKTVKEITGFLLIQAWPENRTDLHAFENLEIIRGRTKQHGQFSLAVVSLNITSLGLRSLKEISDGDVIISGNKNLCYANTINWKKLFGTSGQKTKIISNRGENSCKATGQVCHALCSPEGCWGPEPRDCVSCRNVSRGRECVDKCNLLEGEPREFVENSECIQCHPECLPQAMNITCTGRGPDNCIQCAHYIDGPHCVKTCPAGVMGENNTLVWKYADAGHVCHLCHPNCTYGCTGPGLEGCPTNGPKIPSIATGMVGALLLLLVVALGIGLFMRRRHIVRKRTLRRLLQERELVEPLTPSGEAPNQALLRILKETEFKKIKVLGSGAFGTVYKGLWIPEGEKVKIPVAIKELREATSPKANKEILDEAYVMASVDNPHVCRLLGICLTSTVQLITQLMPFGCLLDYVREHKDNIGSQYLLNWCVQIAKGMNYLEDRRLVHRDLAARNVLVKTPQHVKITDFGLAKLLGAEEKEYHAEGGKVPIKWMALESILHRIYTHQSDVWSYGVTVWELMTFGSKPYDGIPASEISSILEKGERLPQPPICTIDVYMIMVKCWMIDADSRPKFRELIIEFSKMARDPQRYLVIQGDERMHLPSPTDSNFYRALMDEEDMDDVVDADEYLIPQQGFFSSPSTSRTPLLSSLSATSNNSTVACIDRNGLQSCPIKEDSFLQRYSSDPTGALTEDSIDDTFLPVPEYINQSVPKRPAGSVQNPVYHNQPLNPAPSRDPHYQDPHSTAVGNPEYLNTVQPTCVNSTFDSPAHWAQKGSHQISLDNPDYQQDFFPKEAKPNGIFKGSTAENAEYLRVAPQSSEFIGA
# CLK3 = target: T8, CLK3 (Homo sapiens, UniProt P49761); assay: as above; assay type: binding; settings: read-out: % control
# T8 construct: purchased DiscoveRx/Eurofin
# CSF1R = target: T9, CSF1R (Homo sapiens, UniProt P07333); assay: as above; assay type: binding; settings: read-out: % control
# T9 construct: purchased DiscoveRx/Eurofin
# DYRK1A = target: T10, DYRK1A (Homo sapiens, UniProt Q13627); assay: as above; assay type: binding; settings: read-out: % control
# T10 construct: purchased DiscoveRx/Eurofin
# [1] = target: other members of the DAPK family; assay: Kinome profiling of NGN-006; assay type: binding
# CLK4 = target: T11, CLK4 (Homo sapiens, UniProt Q9HAZ1); assay: KINOMEscan kinome profiling (DiscoveRx/Eurofin platform); assay type: binding; settings: read-out: % control
# T11 construct: purchased DiscoveRx/Eurofin
# T11 sequence (Q9HAZ1 whole entry): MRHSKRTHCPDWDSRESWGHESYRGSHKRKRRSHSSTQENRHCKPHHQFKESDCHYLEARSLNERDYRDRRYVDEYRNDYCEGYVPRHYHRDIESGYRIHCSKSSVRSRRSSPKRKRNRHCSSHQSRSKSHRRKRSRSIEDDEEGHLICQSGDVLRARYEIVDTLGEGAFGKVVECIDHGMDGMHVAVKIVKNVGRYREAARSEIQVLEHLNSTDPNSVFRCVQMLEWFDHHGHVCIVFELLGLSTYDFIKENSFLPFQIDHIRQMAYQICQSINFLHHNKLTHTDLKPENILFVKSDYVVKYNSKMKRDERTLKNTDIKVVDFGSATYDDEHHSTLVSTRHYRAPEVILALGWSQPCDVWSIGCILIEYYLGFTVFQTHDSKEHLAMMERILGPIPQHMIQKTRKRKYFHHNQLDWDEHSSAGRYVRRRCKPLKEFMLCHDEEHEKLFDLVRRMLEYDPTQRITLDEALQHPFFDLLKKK
# CSNK1D = target: T12, CSNK1D (Homo sapiens, UniProt P48730); assay: as above; assay type: binding; settings: read-out: % control
# T12 construct: purchased DiscoveRx/Eurofin
# CLK1 = target: T13, CLK1 (Homo sapiens, UniProt P49759); assay: as above; assay type: binding; settings: read-out: % control
# T13 construct: purchased DiscoveRx/Eurofin
# T13 sequence (P49759 whole entry): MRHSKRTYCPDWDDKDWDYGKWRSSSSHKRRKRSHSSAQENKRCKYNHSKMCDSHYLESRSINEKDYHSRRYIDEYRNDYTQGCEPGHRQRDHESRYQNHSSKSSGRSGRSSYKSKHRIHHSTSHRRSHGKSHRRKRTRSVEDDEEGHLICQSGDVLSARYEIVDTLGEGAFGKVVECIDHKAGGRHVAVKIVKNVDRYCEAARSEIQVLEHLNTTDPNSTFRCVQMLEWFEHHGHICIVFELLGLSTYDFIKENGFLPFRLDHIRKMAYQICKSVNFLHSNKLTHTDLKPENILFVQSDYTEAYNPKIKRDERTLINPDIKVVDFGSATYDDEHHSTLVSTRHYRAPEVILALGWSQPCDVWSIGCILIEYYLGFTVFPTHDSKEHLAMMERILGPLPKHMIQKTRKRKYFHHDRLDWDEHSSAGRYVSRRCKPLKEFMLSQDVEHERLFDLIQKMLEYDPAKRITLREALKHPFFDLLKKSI
# CTK (MATK) = target: T14, CTK (MATK) (Homo sapiens, UniProt P42679); assay: as above; assay type: binding; settings: KINOMEscan CTK (Entrez MATK), read-out: % control
# T14 construct: purchased DiscoveRx/Eurofin
# [2] = test system: cerebellar granule neurons (CGNs); assay: Neuroprotection in cerebellar granule neurons switched from HK to LK medium; assay type: cell-based; settings: 1, 5 and 25 uM, viability 24 h later, single experiment in duplicate
# Method: FIGS. 1A to 1C, show: (FIG. 1A) Chemical structure of NGN-006. (FIG. 1B) Neuroprotection in cerebellar granule neurons (CGNs) induced to die by switching from high potassium (HK) to low potassium (LK) medium. HSB-13 and NGN-006 were added to LK-treated CGNs at 1, 5 and 25 uM concentrations. Viability was measured 24 h later and compared with control survival in HK). Results are means values from a single experiment performed in duplicate. […] (FIG. 1C) Neuroprotection in cortical neurons (CGNs) induced to die by treatment with homocysteic acid (HCA) which induces oxidative stress. Neurons were treated either with HCA alone or HCA with 25 uM HSB-13 or 5 uM and 25 uM NGN-006 for 18 h. Viability was measured 24 h later and compared with survival of control (untreated cells, Unt). Results are mean values from a single experiment performed in duplicate.
# Based on the structure of HSB-13 addition compounds have been synthesized. Among these derivatives was NGN-006 (FIG. 1A). […] Viability was measured 24 h later and compared with control survival in HK). […] Viability was measured 24 h later and compared with survival of control (untreated cells, Unt). […]
# EGFR(E746-A750del) = target: T15, EGFR(E746-A750del) (Homo sapiens, UniProt P00533, DEL746-750); assay: KINOMEscan kinome profiling (DiscoveRx/Eurofin platform); assay type: binding; settings: read-out: % control
# T15 construct: purchased DiscoveRx/Eurofin
# CSNK2A2 = target: T16, CSNK2A2 (Homo sapiens, UniProt P19784); assay: as above; assay type: binding; settings: read-out: % control
# T16 construct: purchased DiscoveRx/Eurofin
# CSK = target: T17, CSK (Homo sapiens, UniProt P41240); assay: as above; assay type: binding; settings: read-out: % control
# T17 construct: purchased DiscoveRx/Eurofin
# T17 sequence (P41240 whole entry): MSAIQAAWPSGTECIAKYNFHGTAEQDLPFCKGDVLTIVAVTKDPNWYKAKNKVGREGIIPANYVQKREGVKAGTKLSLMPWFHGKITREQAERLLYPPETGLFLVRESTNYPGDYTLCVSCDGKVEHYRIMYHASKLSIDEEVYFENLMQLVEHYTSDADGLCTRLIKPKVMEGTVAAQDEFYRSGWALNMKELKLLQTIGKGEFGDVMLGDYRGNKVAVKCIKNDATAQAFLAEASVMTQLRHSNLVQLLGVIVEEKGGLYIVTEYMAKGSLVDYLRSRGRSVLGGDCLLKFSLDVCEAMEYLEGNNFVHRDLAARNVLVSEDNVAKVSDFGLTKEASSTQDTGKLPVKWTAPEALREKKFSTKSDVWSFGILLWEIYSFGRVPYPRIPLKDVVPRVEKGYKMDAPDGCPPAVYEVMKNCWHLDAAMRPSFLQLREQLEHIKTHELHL
# [3] = target: T18, EGFR(L747-E749del, A750P) (Homo sapiens, UniProt P00533, A750P/DEL747-749); assay: as above; assay type: binding; settings: read-out: % control
# T18 construct: purchased DiscoveRx/Eurofin
# 451 kinases = assay: Kinome profiling, count of kinases inhibited in the whole panel; assay type: binding; settings: substantially defined as over 36% inhibition at 1 uM
# CSNK1G1 = target: T19, CSNK1G1 (Homo sapiens, UniProt Q9HCP0); assay: KINOMEscan kinome profiling (DiscoveRx/Eurofin platform); assay type: binding; settings: read-out: % control
# T19 construct: purchased DiscoveRx/Eurofin
# T19 sequence (Q9HCP0 whole entry): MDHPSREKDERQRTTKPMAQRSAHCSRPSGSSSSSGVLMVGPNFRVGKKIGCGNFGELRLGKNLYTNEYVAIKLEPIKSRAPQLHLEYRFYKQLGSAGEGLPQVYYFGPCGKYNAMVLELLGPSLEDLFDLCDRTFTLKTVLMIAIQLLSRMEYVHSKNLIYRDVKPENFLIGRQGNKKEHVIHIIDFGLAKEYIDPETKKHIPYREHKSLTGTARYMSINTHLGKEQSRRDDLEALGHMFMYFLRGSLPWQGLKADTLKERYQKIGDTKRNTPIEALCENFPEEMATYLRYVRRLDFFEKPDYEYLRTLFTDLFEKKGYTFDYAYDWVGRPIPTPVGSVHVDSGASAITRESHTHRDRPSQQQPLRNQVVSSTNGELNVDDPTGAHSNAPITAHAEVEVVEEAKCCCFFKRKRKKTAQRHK
# DCAMKL2 (DCLK2) = target: T20, DCAMKL2 (DCLK2) (Homo sapiens, UniProt Q8N568); assay: as above; assay type: binding; settings: KINOMEscan DCAMKL2 (Entrez DCLK2), read-out: % control
# T20 construct: purchased DiscoveRx/Eurofin
# T20 sequence (Q8N568 whole entry): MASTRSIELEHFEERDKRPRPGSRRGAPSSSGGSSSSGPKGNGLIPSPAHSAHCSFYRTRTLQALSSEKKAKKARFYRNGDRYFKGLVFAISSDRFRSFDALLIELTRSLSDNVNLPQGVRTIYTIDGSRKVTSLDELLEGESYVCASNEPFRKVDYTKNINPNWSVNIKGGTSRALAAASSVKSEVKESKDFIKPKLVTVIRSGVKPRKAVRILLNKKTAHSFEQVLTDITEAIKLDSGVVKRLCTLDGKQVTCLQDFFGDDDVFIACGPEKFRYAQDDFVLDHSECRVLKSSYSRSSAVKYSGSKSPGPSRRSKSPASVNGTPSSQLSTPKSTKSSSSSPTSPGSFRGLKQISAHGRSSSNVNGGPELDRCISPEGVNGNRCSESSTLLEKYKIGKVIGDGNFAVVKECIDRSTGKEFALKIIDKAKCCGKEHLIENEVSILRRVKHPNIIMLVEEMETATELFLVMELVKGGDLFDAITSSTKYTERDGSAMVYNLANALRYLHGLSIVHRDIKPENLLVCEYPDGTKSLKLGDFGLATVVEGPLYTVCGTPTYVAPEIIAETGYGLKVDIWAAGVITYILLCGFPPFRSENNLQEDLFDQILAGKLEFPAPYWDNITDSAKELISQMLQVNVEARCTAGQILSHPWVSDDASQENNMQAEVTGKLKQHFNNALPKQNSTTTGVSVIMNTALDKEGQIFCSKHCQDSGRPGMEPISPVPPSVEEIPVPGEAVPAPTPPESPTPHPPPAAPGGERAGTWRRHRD
# GSK3β = GSK3β (Homo sapiens, UniProt P49841); assay: Kinome profiling of NGN-006; assay type: binding; settings: kinase that HSB-13 inhibits
structure (smiles),measurement,setting,value
"Nc1ccc2c(c1)NC(=O)/C(=C/c1ccc(Cl)cc1)O2 [NGN-006, (2Z)-6-amino-2-[(4-chlorophenyl)methylidene]-3,4-dihydro-2H-1,4-benzoxazin-3-one]",remaining binding at 1 µM,DDR2,100%
same,kinase inhibition (in words),p38 MAPK,does not inhibit
same,remaining binding at 1 µM,DMPK2 (CDC42BPG),96%
same,remaining binding at 1 µM,CSNK1E,89%
same,remaining binding at 1 µM,CSNK1A1L,100%
same,remaining binding at 1 µM,DYRK2,100%
same,% control,"EGFR(L747-T751del,Sins)",100%
same,remaining binding at 1 µM,CSF1R -autoinhibited,100%
same,remaining binding at 1 µM,EGFR,87%
same,remaining binding at 1 µM,CLK3,92%
same,remaining binding at 1 µM,CSF1R,100%
same,remaining binding at 1 µM,DYRK1A,100%
same,kinase inhibition (in words),[1],not inhibited
same,remaining binding at 1 µM,CLK4,100%
same,remaining binding at 1 µM,CSNK1D,100%
same,remaining binding at 1 µM,CLK1,79%
same,remaining binding at 1 µM,CTK (MATK),100%
same,neuroprotection (viability),[2],protective
same,remaining binding at 1 µM,EGFR(E746-A750del),100%
same,remaining binding at 1 µM,CSNK2A2,100%
same,remaining binding at 1 µM,CSK,97%
same,remaining binding at 1 µM,[3],92%
same,kinases inhibited substantially of the 451 kinases tested,451 kinases,only DRAK1/STK17a
same,remaining binding at 1 µM,CSNK1G1,100%
same,remaining binding at 1 µM,DCAMKL2 (DCLK2),98%
same,kinase inhibition (in words),GSK3β,does not inhibit
